Data set [1] in a line: Encapsulation efficiency of LNP preparations (Ribogreen assay; Qubit, unlysed and lysed LNPs). Type of data set: physicochemical. To be noted: LNP preparation with the ionizable lipid, ABE mRNA:sgRNA 1:1, except 7-1, 7-2, 7-6, 7-10 (unlysed and lysed LNPs, Qubit). The procedure, abridged: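 LNPs of ionizable lipid, cholesterol, PEG2000-DMG and DSPC (47.5:40:2.5:10 mol%) were made by microfluidic mixing with base-editor mRNA plus sgRNA (1:1 mass) in 50 mM citrate, pH 4.0, at total lipid:NA molar ratio 6 to 12. Encapsulation was read by Ribogreen, or for lipids 7-1, 7-2, 7-6 and 7-10 by Qubit on unlysed versus lysed LNPs.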

A short description of data set [2]: LNP hydrodynamic diameter and polydispersity index by dynamic light scattering (DLS). To be noted: for Diameter (nm): hydrodynamic diameter of the LNP preparation with the ionizable lipid; for PDI: polydispersity index of the LNP preparation with the ionizable lipid. Type of data set: physicochemical. The procedure, abridged:
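LNPs were mixed at a 3:1 aqueous:organic ratio, diluted in TBS and dialysed against TBS at 4° C. for 8 to 24 hours (20 kDa). Hydrodynamic diameter and PDI were then measured by high-throughput DLS after dilution in 1×PBS.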

The test system of a further data set is ALAS1 target site. Put plainly: Base editing in liver by LNP-delivered ABE mRNA and sgRNA, targeted deep sequencing. Type of data set: in vivo. To be noted: LNP with the ionizable lipid, ABE mRNA + sgRNA targeting ALAS1 1:1; tail vein injection, Balb/c mice; 0.05 mg/kg; tissues four to six days post-dose.

Consider `CC/C=C\CCCCOC(CCC(=O)OCC(COC(=O)CCCCCCCOC(=O)C(CCCC)CCCCCC)COC(=O)OCC(CCCCCC)OC(=O)NCCN1CCCC1)OCCCC/C=C\CC` (stereo not drawn) [Compound 7-8, 12-(((4,4-bis(((Z)-oct-5-en-1-yl)oxy)butanoyl)oxy)methyl)-6-hexyl-4,9,15-trioxo-1-(pyrrolidin-1-yl)-5,8,10,14-tetraoxa-3-azadocosan-22-yl 2-butyloctanoate], for which the “Encapsulation Efficiency (%)” value in data set [1] is 95.5%. Besides, in data set [2], the “Diameter (nm)” value is on record as 62.8 nm and the PDI is given as 0.07. Moreover, the “% Editing in Liver (0.05 mpk)” value in the data set on ALAS1 target site turned out to be 14.8%.
For `CC/C=C\CCCCOC(CCC(=O)OCC(COC(=O)CCCCCCOC(=O)C(CCCC)CCCCCC)COC(=O)CCC(CCCCC)OC(=O)NCCN1CCCC1)OCCCC/C=C\CC` (stereo not drawn) [Compound 7-23, 3-((4,4-bis(((Z)-oct-5-en-1-yl)oxy)butanoyl)oxy)-2-(((7-((2-butyloctanoyl)oxy)heptanoyl)oxy)methyl)propyl 4-(((2-(pyrrolidin-1-yl)ethyl)carbamoyl)oxy)nonanoate], the “Encapsulation Efficiency (%)” value in data set [1] came to 98.7%. In data set [2], the “Diameter (nm)” value is 57.90 nm and the PDI was 0.12. Moreover, the “% Editing in Liver (0.05 mpk)” value in the data set with ALAS1 target site turned out to be 1.0%.
As to `C=CCCCCCC(CCCCCC=C)OC(=O)CCCCCC(=O)OCC(COC(=O)CCC(CCCCC)OC(=O)NCCN1CCCC1)COC(=O)CCC(OCCCC/C=C\CC)OCCCC/C=C\CC` (stereo not drawn) [Compound 7-33, 1-(3-((4,4-bis(((Z)-oct-5-en-1-yl)oxy)butanoyl)oxy)-2-(((4-(((2-(pyrrolidin-1-yl)ethyl)carbamoyl)oxy)nonanoyl)oxy)methyl)propyl) 7-(pentadeca-1,14-dien-8-yl) heptanedioate], the “Encapsulation Efficiency (%)” value in data set [1] was 96.7%. Moreover, in data set [2], the “Diameter (nm)” value is given as 64.85 nm and the PDI is 0.11. Besides, the “% Editing in Liver (0.05 mpk)” value with ALAS1 target site came out at 6.5%.
For the molecule `CC/C=C\CCCCOC(CCC(=O)OCC(COC(=O)CCCCCC(=O)OCCC(CCCCC)CCCCC)COC(=O)CCC(CCC)OC(=O)NCCN1CCCC1)OCCCC/C=C\CC` (stereo not drawn) [Compound 7-25, 1-(3-((4,4-bis(((Z)-oct-5-en-1-yl)oxy)butanoyl)oxy)-2-(((4-(((2-(pyrrolidin-1-yl)ethyl)carbamoyl)oxy)heptanoyl)oxy)methyl)propyl) 7-(3-pentyloctyl) heptanedioate], the “Encapsulation Efficiency (%)” value in data set [1] was 97.8%. Moreover, in data set [2], the “Diameter (nm)” value came to 78.75 nm and the PDI came out at 0.11. Also, the “% Editing in Liver (0.05 mpk)” value in the data set on ALAS1 target site is listed as 0.9%.
On the same counts, the results for `CC/C=C\CCCCOC(CCC(=O)OCC(COC(=O)CCCCCCOC(=O)C(CCCC)CCCCCC)COC(=O)CCC(CCCCCC)OC(=O)NCCN1CCCCC1)OCCCC/C=C\CC` (stereo not drawn) [Compound 7-44, 3-((4,4-bis(((Z)-oct-5-en-1-yl)oxy)butanoyl)oxy)-2-(((7-((2-butyloctanoyl)oxy)heptanoyl)oxy)methyl)propyl 4-(((2-(piperidin-1-yl)ethyl)carbamoyl)oxy)decanoate] are 89.2%, 68.8 nm, 0.08 and 0.1%.
As for `CC/C=C\CCCCOC(CCC(=O)OCC(COC(=O)CCCCCCOC(=O)C(CCCC)CCCCCC)COC(=O)CCC(CCCCCCC)OC(=O)NCCN1CCCC1)OCCCC/C=C\CC` (stereo not drawn) [Compound 7-50, 3-((4,4-bis(((Z)-oct-5-en-1-yl)oxy)butanoyl)oxy)-2-(((7-((2-butyloctanoyl)oxy)heptanoyl)oxy)methyl)propyl 4-(((2-(pyrrolidin-1-yl)ethyl)carbamoyl)oxy)undecanoate], in data set [1], the “Encapsulation Efficiency (%)” value was determined as 96.6%. For the same molecule, in data set [2], the “Diameter (nm)” value is listed as 53.45 nm and the PDI is listed as 0.09. In addition, the “% Editing in Liver (0.05 mpk)” value with ALAS1 target site came to 4.0%.
Turning to `C=CCCCCCC(CCCCCC=C)COC(=O)CCCCC(=O)OCC(COC(=O)CCC(CCCCCC)OC(=O)NCCN1CCCC1)COC(=O)CCC(OCCCC/C=C\CC)OCCCC/C=C\CC` (stereo not drawn) [Compound 7-39, 3-((4,4-bis(((Z)-oct-5-en-1-yl)oxy)butanoyl)oxy)-2-(((4-(((2-(pyrrolidin-1-yl)ethyl)carbamoyl)oxy)decanoyl)oxy)methyl)propyl (2-(hept-6-en-1-yl)non-8-en-1-yl) adipate], the “Encapsulation Efficiency (%)” value in data set [1] was determined as 97.4%. Moreover, in data set [2], the “Diameter (nm)” value was determined as 53.4 nm and the PDI turned out to be 0.08. Moreover, the “% Editing in Liver (0.05 mpk)” value in the data set with ALAS1 target site is reported as 1.4%.
Consider `CC/C=C\CCCCOC(CCC(=O)OCC(COC(=O)CCCCCCOC(=O)C(CCCC)CCCCCC)COC(=O)CCC(CCCCCC)OC(=O)NCCN(CC)CC)OCCCC/C=C\CC` (stereo not drawn) [Compound 7-41, 3-((4,4-bis(((Z)-oct-5-en-1-yl)oxy)butanoyl)oxy)-2-(((7-((2-butyloctanoyl)oxy)heptanoyl)oxy)methyl)propyl 4-(((2-(diethylamino)ethyl)carbamoyl)oxy)decanoate], for which the “Encapsulation Efficiency (%)” value in data set [1] was 95.9%. In data set [2], the “Diameter (nm)” value worked out at 59.05 nm and the PDI worked out at 0.06. The “% Editing in Liver (0.05 mpk)” value in the data set with ALAS1 target site is recorded as 4.5%.
For `C=CCCCCCC(CCCCCC=C)OC(=O)CCCCCC(=O)OCC(COC(=O)CCC(CCCCCC)OC(=O)NCCN1CCCC1)COC(=O)CCC(OCCCC/C=C\CC)OCCCC/C=C\CC` (stereo not drawn) [Compound 7-34, 1-(3-((4,4-bis(((Z)-oct-5-en-1-yl)oxy)butanoyl)oxy)-2-(((4-(((2-(pyrrolidin-1-yl)ethyl)carbamoyl)oxy)decanoyl)oxy)methyl)propyl) 7-(pentadeca-1,14-dien-8-yl) heptanedioate] the same measures were 98.1%, 54.35 nm, 0.05 and 1.6%.
On the same counts, the results for `CC/C=C\CCCCOC(CCC(=O)OCC(COC(=O)CCCCCC(=O)OCCC(CCCCCC)CCCCCC)COC(=O)CCC(CCCCCC)OC(=O)NCCN1CCCC1)OCCCC/C=C\CC` (stereo not drawn) [Compound 7-14, 1-(3-((4,4-bis(((Z)-oct-5-en-1-yl)oxy)butanoyl)oxy)-2-(((4-(((2-(pyrrolidin-1-yl)ethyl)carbamoyl)oxy)decanoyl)oxy)methyl)propyl) 7-(3-hexylnonyl) heptanedioate] are 97.6%, 59.40 nm, 0.09 and 0.1%.
On to `CC/C=C\CCCCOC(CCC(=O)OCC(COC(=O)CCCCCC(=O)OCCC(CCCC)CCCC)COC(=O)CCC(CCCCCC)OC(=O)NCCN1CCCC1)OCCCC/C=C\CC` (stereo not drawn) [Compound 7-12, 1-(3-((4,4-bis(((Z)-oct-5-en-1-yl)oxy)butanoyl)oxy)-2-(((4-(((2-(pyrrolidin-1-yl)ethyl)carbamoyl)oxy)decanoyl)oxy)methyl)propyl) 7-(3-butylheptyl) heptanedioate], for which the “Encapsulation Efficiency (%)” value in data set [1] came to 96.4%. Further, in data set [2], the “Diameter (nm)” value worked out at 69.26 nm and the PDI amounted to 0.11. The “% Editing in Liver (0.05 mpk)” value in the data set with ALAS1 target site is listed as 1.7%.
Regarding `CC/C=C\CCCCOC(CCC(=O)OCC(COC(=O)CCCCC(=O)OCCC(CCCCCC)CCCCCC)COC(=O)CCC(CCCCCC)OC(=O)NCCN1CCCC1)OCCCC/C=C\CC` (stereo not drawn) [Compound 7-16, 3-((4,4-bis(((Z)-oct-5-en-1-yl)oxy)butanoyl)oxy)-2-(((4-(((2-(pyrrolidin-1-yl)ethyl)carbamoyl)oxy)decanoyl)oxy)methyl)propyl (3-hexylnonyl) adipate], the “Encapsulation Efficiency (%)” value in data set [1] turned out to be 98.0%. Besides, in data set [2], the “Diameter (nm)” value was determined as 52.55 nm and the PDI stood at 0.05. For the same molecule, in the data set with ALAS1 target site, the “% Editing in Liver (0.05 mpk)” value is on record as 0.7%.

The values above are taken from patent US12296053B2, “Nanomaterials comprising triols” (Beam Therapeutics Inc., priority 2022, dated 2025).
